IC50 data for 7 compounds are collected here from patent US7674819B2 (Warner-Lambert Company LLC, priority 2005, dated 2010).

Positions count from the first letter of the chain named. Like-named read-outs stand apart in the source and are kept apart here.

In one assay the target is T1, androgen receptor (Homo sapiens, UniProt P10275).
T1 sequence (P10275 1-920 Q868H): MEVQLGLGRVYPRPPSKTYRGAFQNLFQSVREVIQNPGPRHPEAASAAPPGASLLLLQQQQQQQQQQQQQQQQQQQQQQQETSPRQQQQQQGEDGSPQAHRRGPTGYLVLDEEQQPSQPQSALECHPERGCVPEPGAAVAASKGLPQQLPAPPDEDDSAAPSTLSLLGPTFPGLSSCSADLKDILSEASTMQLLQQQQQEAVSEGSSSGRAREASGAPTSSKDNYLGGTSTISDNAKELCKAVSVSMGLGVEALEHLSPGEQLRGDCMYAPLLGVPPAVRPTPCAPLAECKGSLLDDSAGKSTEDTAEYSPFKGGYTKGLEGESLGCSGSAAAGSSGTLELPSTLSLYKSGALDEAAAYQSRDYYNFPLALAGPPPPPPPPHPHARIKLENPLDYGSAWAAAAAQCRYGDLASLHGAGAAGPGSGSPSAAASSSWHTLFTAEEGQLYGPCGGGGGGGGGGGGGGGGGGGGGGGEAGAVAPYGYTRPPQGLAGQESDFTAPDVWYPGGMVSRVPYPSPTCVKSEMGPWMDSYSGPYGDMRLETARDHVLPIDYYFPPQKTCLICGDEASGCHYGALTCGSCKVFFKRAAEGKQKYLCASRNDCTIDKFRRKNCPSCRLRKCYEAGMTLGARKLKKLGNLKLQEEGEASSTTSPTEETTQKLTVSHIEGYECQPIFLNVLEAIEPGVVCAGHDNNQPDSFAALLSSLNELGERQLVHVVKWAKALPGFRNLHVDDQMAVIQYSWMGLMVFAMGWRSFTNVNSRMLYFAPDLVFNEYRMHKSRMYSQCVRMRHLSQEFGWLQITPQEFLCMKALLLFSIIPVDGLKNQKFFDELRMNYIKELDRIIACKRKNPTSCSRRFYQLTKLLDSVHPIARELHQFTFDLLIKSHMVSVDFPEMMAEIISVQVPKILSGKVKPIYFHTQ
In words: AR Antagonist Cell Assay (MDA-MB453-MMTV clone 54-19, luciferase reporter). The settings on record: inhibition of induction by DHT (final concentration at 100 μM), 17 hr, compound 0.32-1000 nM, mean of multiple tests. The format is cell-based. The essentials: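 MDA-MB453 breast tumour cells stably carrying an ARE-containing MMTV promoter driving firefly luciferase, plated overnight at 37° C in charcoal-treated serum medium. DHT added (final […]) and incubated 17 hr at 37° C. Luminescence read after adding luciferase buffer; values are means of multiple tests.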

The target of another assay is T2, hAR (Homo sapiens, UniProt P10275).
T2 sequence (P10275 1-920): T1 sequence (P10275 1-920 Q868H) with H868Q
In words: Competitive binding of 3H-DHT to baculovirus/Sf9 generated hAR extracts. The settings on record: one hour at 4° C., mean of multiple tests. A digest of the protocol:
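Baculovirus/Sf9-expressed hAR extract incubated with test compound, hydroxylapatite and 1 nM 3H-DHT tracer for 1 h at 4° C, then washed free of unbound tracer. Affinity given as concentration inhibiting half of maximal 3H-DHT binding.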

[1] abbreviates: IC50, concentration at which one half of maximum binding of 1 nM 3H-DHT to hAR is inhibited.
[2] abbreviates: concentration at which one half of maximum binding of 1 nM 3H-DHT to hAR is inhibited, read-out: IC50.

On to `CCCCN1CC(C)(C)C(Oc2ccc(C#N)c(C(F)(F)F)c2)C1=O` (single isomer, unassigned; (+)) [Example 20, (+)-4-(1-Butyl-4,4-dimethyl-2-oxo-pyrrolidin-3-yloxy)-2-trifluoromethyl-benzonitrile], for which the IC50 was 0.013 µM against androgen receptor and 0.097 µM on hAR (setting [1]).

On to `CCCS(=O)(=O)N1CC(C)(C)C(Oc2ccc(C#N)c(C(F)(F)F)c2)C1=O` (single isomer, unassigned; (+)) [Example 82, (+)-4-[4,4-Dimethyl-2-oxo-1-(propane-1-sulfonyl)-pyrrolidin-3-yloxy]-2-trifluoromethyl-benzonitrile], for which the IC50 on androgen receptor came to 0.056 µM; on hAR (setting [1]) it was 0.047 µM.

For `CC[C@H](C)N1CC(C)(C)[C@@H](Oc2ccc(C#N)c(C(F)(F)F)c2)C1=O` [Example 1, (3R,S)-(+)-4-(1-sec-Butyl-4,4-dimethyl-2-oxo-pyrrolidin-3-yloxy)-2-trifluoromethyl-benzonitrile], the IC50 is 0.033 µM against androgen receptor and 0.136 µM on hAR (setting [1]).

As for `CCCN1CC(C)(C)C(Oc2ccc(C#N)c(C(F)(F)F)c2)C1=O` (centres unmarked) [Example 4, 4-(4,4-dimethyl-2-oxo-1-propyl-pyrrolidin-3-yloxy)-2-trifluoromethyl-benzonitrile], the results for the half-maximal inhibitory concentration (IC50) on androgen receptor and at hAR (setting [1]) were 0.026 µM and 0.188 µM, respectively.

For the compound `CCCN1CC(C)(C)[C@@H](Oc2ccc(C#N)c(C(F)(F)F)c2)C1=O` [Example 4A, (+)-4-(1-Propyl-4,4-dimethyl-2-oxo-pyrrolidin-3-yloxy)-2-trifluoromethyl-benzonitrile (E2)], the IC50 on androgen receptor stood at 0.092 µM; at hAR (setting [1]) it was 0.23 µM.

In the case of `CC1(C)CN(S(C)(=O)=O)C(=O)C1Oc1ccc(C#N)c(C(F)(F)F)c1` (centres unmarked) [Example 81, 4-(1-methanesulfonyl-4,4-dimethyl-2-oxo-pyrrolidin-3-yloxy)-2-trifluoromethyl-benzonitrile], the IC50 at androgen receptor (read-out: IC50) was found to be 0.199 µM; on hAR (setting [2]) it was 0.139 µM.

For the compound `CC(c1ccccc1)N1CC(C)(C)C(Oc2ccc(C#N)cc2Cl)C1=O` (centres unmarked) [Example 109], the results for the IC50 on androgen receptor (read-out: IC50) and on hAR (setting [2]) were 0.014 µM and 0.203 µM, respectively.

In general, IC50 refers to the concentration at which inhibition is half-maximal.
